Measured values reported in EP0164204A1, “Novel pharmaceutically useful pyrimidines” (FISONS plc, priority 1984, dated 1985).

System: immune response to oxazolone
Test: Rescue of the cyclophosphamide-inhibited delayed contact response to oxazolone in mice (Example A, b)
Format: in vivo
Settings: Mus musculus, ip, 48 h; cyclophosphamide alone, 200mg/kg intraperitoneal, two days after sensitisation with oxazolone; C57B1 mice

SMILES: O=P1(N(CCCl)CCCl)NCCCO1 (stereo not shown) [cyclophosphamide]
- inhibition at 200 mg/kg: 64%
